Experimental data reported in publication PMC5458078, “Global mapping of CARM1 substrates defines enzyme specificity and substrate recognition” (Nature Communications, 2017).
Where two headings read alike, the source gives them in different places.

Columns and labels:
MCF7 CARM1 KO cells = test: Quantitative MS of ADMA-containing peptides in MCF7 CARM1 KO cells expressing CARM1 28-608 or CARM1 140-608, and in CARM1 KO; assay type: cell-based, human
MCF7 cells = test: Quantitative nanoLC-MS/MS (TMT) of ADMA-containing peptides, CARM1 KO vs parental; assay type: cell-based, human; set-up: Fold change KO/WT: scale not given here
[1] = mean, CARM1 140-608 versus WT (log2 scale)
[2] = mean, CARM1 KO versus WT (log2 scale)
[3] = MCF7, CARM1 knockout vs wild type, n = 3 each
[4] = CARM1 140-608 vs WT, mean of 3 replicates (log2 scale)
[5] = KO vs WT, mean of 3 replicates (log2 scale)
[6] = MCF7, CARM1 KO (KO1-KO3) vs wild type (WT1-WT3)
[7] = ratio on log2 scale, mean of 3 replicates
[8] = CARM1 140-608 vs WT, mean of 3 replicates, log2
[9] = KO vs WT, mean of 3 replicates, log2
[10] = MCF7, CARM1 KO vs WT, three biological replicates each
[11] = CARM1 140-608 versus WT, difference of mean log2 values
[12] = CARM1 KO versus WT, difference of mean log2 values
[13] = CARM1 KO vs wild type MCF7 cells, 3 biological replicates each
[14] = log2 scale ratio, mean of n = 3
[15] = ADMA-containing peptide, MCF7, CARM1 knockout (KO1-3) vs wild type (WT1-3), TMT 6-plex experiment #1
[16] = difference of log2 means, CARM1 140-608 vs WT
[17] = difference of log2 means, KO vs WT
[18] = MCF7 CARM1 knockout vs wild type, 3 biological replicates each, values are on log2 scale
[19] = CARM1 140-608 versus WT, mean of three replicates (log2)
[20] = KO versus WT, mean of three replicates (log2)
[21] = ADMA-containing peptide, CARM1 knockout (KO) vs wild type (WT) MCF7 cells, 6-plex TMT experiment #1, three biological replicates each, sheet "MCF7"

## GGrGrGGSGGGGGGGGGGYNR
MCF7 CARM1 KO cells; [1]
  CARM1 140-608/WT: 0.1837
MCF7 CARM1 KO cells; [2]
  KO/WT: 0.3356
MCF7 cells; [3]
  Fold change KO/WT: -0.05268

## MGTPVPrPPQDMGQIGVrTPLGPRVAAPVGPVGPTPTVLPMGAPVPrPR
MCF7 CARM1 KO cells; [4]
  CARM1 140-608/WT: -2.791
MCF7 CARM1 KO cells; [5]
  KO/WT: -3.834
MCF7 cells; [6]
  Fold change KO/WT: -3.625

## CAGFLEPTWLAAPPrLARPPR
MCF7 CARM1 KO cells; [7]
  CARM1 140-608/WT: -0.2739
  KO/WT: -1.902
MCF7 cells; [3]
  Fold change KO/WT: -1.902

## NRPAIArGAAGGGGR
MCF7 CARM1 KO cells; [8]
  CARM1 140-608/WT: -0.06003
MCF7 CARM1 KO cells; [9]
  KO/WT: 0.534
MCF7 cells; [10]
  Fold change KO/WT: 0.06918

## KYPLPPPSGrYNWN
MCF7 CARM1 KO cells; [11]
  CARM1 140-608/WT: -1.833
MCF7 CARM1 KO cells; [12]
  KO/WT: -2.65
MCF7 cells; [13]
  Fold change KO/WT: -1.439

## FrPNPLNNPR
MCF7 CARM1 KO cells; [14]
  CARM1 140-608/WT: 0.04278
  KO/WT: 0.4697
MCF7 cells; [15]
  Fold change KO/WT: 0.07251

## YSAFQLAPFQDHGLPAVSVDSPVrYK
MCF7 CARM1 KO cells; [11]
  CARM1 140-608/WT: -1.433
MCF7 CARM1 KO cells; [12]
  KO/WT: -2.156
MCF7 cells; [13]
  Fold change KO/WT: -2.156

## GSQDSPAVPHPGPLQHWQPENVNQAFTrPPPPYPGNIrSPVAPPLGPrYAVFPK
MCF7 CARM1 KO cells; [16]
  CARM1 140-608/WT: -1.013
MCF7 CARM1 KO cells; [17]
  KO/WT: -2.722
MCF7 cells; [18]
  Fold change KO/WT: -2.234

## VFrYSTSLEK
MCF7 CARM1 KO cells; [4]
  CARM1 140-608/WT: 0.01169
MCF7 CARM1 KO cells; [5]
  KO/WT: 0.0856
MCF7 cells; [6]
  Fold change KO/WT: 0.0856

## VSTSGPrAFSSrSYTSGPGSrISSSSFSR
MCF7 CARM1 KO cells; [16]
  CARM1 140-608/WT: -2.338
MCF7 CARM1 KO cells; [17]
  KO/WT: -2.338
MCF7 cells; [18]
  Fold change KO/WT: -2.338

## APrFPSNIIVTNGAAR
MCF7 CARM1 KO cells; [19]
  CARM1 140-608/WT: -0.8621
MCF7 CARM1 KO cells; [20]
  KO/WT: -1.771
MCF7 cells; [6]
  Fold change KO/WT: -1.771

## LGHDAYrLGQDPYR
MCF7 CARM1 KO cells
  CARM1 140-608/WT: -1.007
  KO/WT: -1.081
MCF7 cells; [15]
  Fold change KO/WT: -1.081

## VGVPTAVQNLAPrAAVAAAAPrAVAPYK
MCF7 CARM1 KO cells; [19]
  CARM1 140-608/WT: 0.2214
MCF7 CARM1 KO cells; [20]
  KO/WT: -3.003
MCF7 cells; [21]
  Fold change KO/WT: -3.907

## GGrGPFPLQVVSVGGPAR
MCF7 CARM1 KO cells; [7]
  CARM1 140-608/WT: -0.1124
  KO/WT: -0.2975
MCF7 cells; [3]
  Fold change KO/WT: -0.2975

## MGTPVPRPPQDMGQIGVrTPLGPrVAAPVGPVGPTPTVLPMGAPVPRPR
MCF7 CARM1 KO cells; [4]
  CARM1 140-608/WT: -1.595
MCF7 CARM1 KO cells; [5]
  KO/WT: -3.449
MCF7 cells; [6]
  Fold change KO/WT: -3.424

## NVNPVILLNTQTrPYGFGLNHGHTPYSSMLNQGLGVPGIGATQGLrTGFTNIPSrYGTNNR
MCF7 CARM1 KO cells; [4]
  CARM1 140-608/WT: -1.7448
MCF7 CARM1 KO cells; [5]
  KO/WT: -2.828
MCF7 cells; [6]
  Fold change KO/WT: -2.828

## YPLPPPSGrYNWN
MCF7 CARM1 KO cells; [11]
  CARM1 140-608/WT: -1.592
MCF7 CARM1 KO cells; [12]
  KO/WT: -1.5401
MCF7 cells; [13]
  Fold change KO/WT: -1.371

## APAGGSLGrALMR
MCF7 CARM1 KO cells; [16]
  CARM1 140-608/WT: -0.03816
MCF7 CARM1 KO cells; [17]
  KO/WT: 0.3587
MCF7 cells; [21]
  Fold change KO/WT: -0.2145

## rPFGISALIVGFDDDGISR
MCF7 CARM1 KO cells; [19]
  CARM1 140-608/WT: -0.5842
MCF7 CARM1 KO cells; [20]
  KO/WT: -1.577
MCF7 cells; [6]
  Fold change KO/WT: -1.577

## HASErGHLR
MCF7 CARM1 KO cells; [11]
  CARM1 140-608/WT: 0.2697
MCF7 CARM1 KO cells; [12]
  KO/WT: 1.422
MCF7 cells; [13]
  Fold change KO/WT: 1.422

## APVFPGrGSYSNR
MCF7 CARM1 KO cells; [1]
  CARM1 140-608/WT: 0.1704
MCF7 CARM1 KO cells; [2]
  KO/WT: 0.1127
MCF7 cells; [18]
  Fold change KO/WT: -0.1545

## GGGSGNFMGrGGNFGGGGGNFGrGGNFGGrGGYGGGGGGSR
MCF7 CARM1 KO cells; [1]
  CARM1 140-608/WT: -0.1884
MCF7 CARM1 KO cells; [2]
  KO/WT: -0.008363
MCF7 cells; [3]
  Fold change KO/WT: -0.1359

## SAPFFIPTIPGLVPrYAAPEQNNDPQQSK
MCF7 CARM1 KO cells; [11]
  CARM1 140-608/WT: -3.554
MCF7 CARM1 KO cells; [12]
  KO/WT: -5.228
MCF7 cells; [13]
  Fold change KO/WT: -5.228

## QALGSPLAGISTrLPGPGEPVPGPAGPAQFIELrHNVQK
MCF7 CARM1 KO cells; [16]
  CARM1 140-608/WT: -1.36
MCF7 CARM1 KO cells; [17]
  KO/WT: -2.458
MCF7 cells; [18]
  Fold change KO/WT: -2.458

## STrGGHMNSGGHAK
MCF7 CARM1 KO cells; [8]
  CARM1 140-608/WT: 0.5079
MCF7 CARM1 KO cells; [9]
  KO/WT: 0.07617
MCF7 cells; [10]
  Fold change KO/WT: 0.07617

## CPADNPGLVQAQPrVPLTPTR
MCF7 CARM1 KO cells; [14]
  CARM1 140-608/WT: -3.3817
  KO/WT: -4.345
MCF7 cells; [15]
  Fold change KO/WT: -4.345

## GArLPGPVSSAR
MCF7 CARM1 KO cells; [8]
  CARM1 140-608/WT: -1.788
MCF7 CARM1 KO cells; [9]
  KO/WT: -2.095
MCF7 cells; [10]
  Fold change KO/WT: -2.095

## SVVESSAPGANNLQVNALVArLPLLLPR
MCF7 CARM1 KO cells; [4]
  CARM1 140-608/WT: -0.343
MCF7 CARM1 KO cells; [5]
  KO/WT: -2.6091
MCF7 cells; [6]
  Fold change KO/WT: -2

## TSGELGPFNNGASYPLQAGQPrLTK
MCF7 CARM1 KO cells; [16]
  CARM1 140-608/WT: -2.866
MCF7 CARM1 KO cells; [17]
  KO/WT: -4.63
MCF7 cells; [21]
  Fold change KO/WT: -4.512

## LSAETWDLLrLPLER
MCF7 CARM1 KO cells; [1]
  CARM1 140-608/WT: -2.21
MCF7 CARM1 KO cells; [2]
  KO/WT: -3.314
MCF7 cells; [3]
  Fold change KO/WT: -3.314

## LAQDPYrLGHDPYR
MCF7 CARM1 KO cells
  CARM1 140-608/WT: -0.7785
  KO/WT: -0.6293
MCF7 cells; [15]
  Fold change KO/WT: -0.6293

## ASAPAADPPrYTFAPSVSLNK
MCF7 CARM1 KO cells; [19]
  CARM1 140-608/WT: -4.581
MCF7 CARM1 KO cells; [20]
  KO/WT: -6.091
MCF7 cells; [21]
  Fold change KO/WT: -4.884

## FGDMSYSIrHSISMPAMR
MCF7 CARM1 KO cells; [14]
  CARM1 140-608/WT: -2.806
  KO/WT: -3.258
MCF7 cells; [15]
  Fold change KO/WT: -3.258
